Literature values, collected in patent US20120172289A1, “MULTIFUNCTIONAL GLYCOPEPTIDE ANTIBIOTIC DERIVATIVES FOR FLUORESCENT IMAGING AND PHOTOACTIVE ANTIMICROBIAL THERAPY” (NANYANG TECHNOLOGICAL UNIVERSITY, priority 2010, published 2012).

Test system: D-Ala-D-Lac
Conditions: mutation of peptidoglycan sequence in VRE

CN[C@H](CC(C)C)C(=O)N[C@H]1C(=O)N[C@@H](CC(N)=O)C(=O)N[C@H]2C(=O)N[C@H]3C(=O)N[C@H](C(=O)N[C@H](C(=O)O)c4cc(O)cc(O)c4-c4cc3ccc4O)[C@H](O)c3ccc(c(Cl)c3)Oc3cc2cc(c3O[C@@H]2O[C@H](CO)[C@@H](O)[C@H](O)[C@H]2O[C@H]2C[C@](C)(N)[C@H](O)[C@H](C)O2)Oc2ccc(cc2Cl)[C@H]1O [Vancomycin]
decrease of binding affinity, D-Ala-D-Ala to D-Ala-D-Lac: ~10^3 times
